Test results published in the CombiSolv-Exp solvation set (Vermeire and Green 2021).

Test: solvent given as SMILES

Cc1cccc(C(=O)O)c1
solvation free energy, 298 K (in C1CCOC1): -10.5 kcal/mol | solvation free energy, 298 K (in C1COCCO1): -10.1 kcal/mol | solvation free energy, 298 K (in CC(C)(C)O): -10.2 kcal/mol | solvation free energy, 298 K (in CC(C)CC(C)O): -10 kcal/mol | solvation free energy, 298 K (in CC(C)CCO): -9.93 kcal/mol | solvation free energy, 298 K (in CC(C)CO): -9.91 kcal/mol | solvation free energy, 298 K (in CC(C)O): -10.1 kcal/mol | solvation free energy, 298 K (in CC(C)OCCO): -10.1 kcal/mol | solvation free energy, 298 K (in CC(O)COC(C)(C)C): -9.97 kcal/mol | solvation free energy, 298 K (in CCC(C)CO): -9.88 kcal/mol | solvation free energy, 298 K (in CCC(C)O): -10.1 kcal/mol | solvation free energy, 298 K (in CCCC(C)CO): -9.89 kcal/mol | solvation free energy, 298 K (in CCCC(C)O): -10 kcal/mol | solvation free energy, 298 K (in CCCCCCCCCCO): -9.65 kcal/mol | solvation free energy, 298 K (in CCCCCCCCO): -9.87 kcal/mol | solvation free energy, 298 K (in CCCCCCCO): -9.91 kcal/mol | solvation free energy, 298 K (in CCCCCCO): -9.94 kcal/mol | solvation free energy, 298 K (in CCCCCO): -9.99 kcal/mol | solvation free energy, 298 K (in CCCCO): -10 kcal/mol | solvation free energy, 298 K (in CCCCOC(C)=O): -9.69 kcal/mol | solvation free energy, 298 K (in CCCCOCCO): -10 kcal/mol | solvation free energy, 298 K (in CCCO): -10.3 kcal/mol | solvation free energy, 298 K (in CCCOCCO): -10.1 kcal/mol | solvation free energy, 298 K (in CCO): -10.2 kcal/mol | solvation free energy, 298 K (in CCOC(C)=O): -9.9 kcal/mol | solvation free energy, 298 K (in CCOCC): -10 kcal/mol | solvation free energy, 298 K (in CCOCCO): -10.1 kcal/mol | solvation free energy, 298 K (in CO): -10.3 kcal/mol | solvation free energy, 298 K (in COC(C)=O): -9.99 kcal/mol | solvation free energy, 298 K (in COC(C)CCO): -10.1 kcal/mol | solvation free energy, 298 K (in O): -6.79 kcal/mol

CCC1CCCCC1
solvation free energy, 298 K (in Brc1ccccc1): -5.2 kcal/mol | solvation free energy, 298 K (in C1CCCCC1): -5.59 kcal/mol | solvation free energy, 298 K (in C1CCOC1): -5.38 kcal/mol | solvation free energy, 298 K (in C1COCCO1): -4.67 kcal/mol | solvation free energy, 298 K (in C=CCCCC): -5.39 kcal/mol | solvation free energy, 298 K (in C=CCCCCCC): -5.34 kcal/mol | solvation free energy, 298 K (in C=CCCCCCCCC): -5.3 kcal/mol | solvation free energy, 298 K (in CC1COC(=O)O1): -3.41 kcal/mol | solvation free energy, 298 K (in CC#N): -3.87 kcal/mol | solvation free energy, 298 K (in CC(=O)N(C)C): -4.21 kcal/mol | solvation free energy, 298 K (in CC(=O)O): -4.16 kcal/mol | solvation free energy, 298 K (in CC(=O)c1ccccc1): -4.54 kcal/mol | solvation free energy, 298 K (in CC(C)=O): -4.54 kcal/mol | solvation free energy, 298 K (in CC(C)CC(C)(C)C): -5.28 kcal/mol | solvation free energy, 298 K (in CC(C)CCCC(C)CCCC(C)CCCCC(C)CCCC(C)CCCC(C)C): -4.99 kcal/mol | solvation free energy, 298 K (in CC(C)CCO): -4.74 kcal/mol | solvation free energy, 298 K (in CC(C)O): -4.53 kcal/mol | solvation free energy, 298 K (in CC(C)OC(C)C): -5.26 kcal/mol | solvation free energy, 298 K (in CCBr): -5.53 kcal/mol | solvation free energy, 298 K (in CCC#N): -4.51 kcal/mol | solvation free energy, 298 K (in CCC(C)=O): -4.81 kcal/mol | solvation free energy, 298 K (in CCCC#N): -4.46 kcal/mol | solvation free energy, 298 K (in CCCC(=O)OCC): -5.04 kcal/mol | solvation free energy, 298 K (in CCCC(C)=O): -4.91 kcal/mol | solvation free energy, 298 K (in CCCCC): -5.41 kcal/mol | solvation free energy, 298 K (in CCCCCC): -5.42 kcal/mol | solvation free energy, 298 K (in CCCCCC(C)=O): -4.96 kcal/mol | solvation free energy, 298 K (in CCCCCCC): -5.39 kcal/mol | solvation free energy, 298 K (in CCCCCCCC): -5.38 kcal/mol | solvation free energy, 298 K (in CCCCCCCCC): -5.31 kcal/mol | solvation free energy, 298 K (in CCCCCCCCC=CCCCCCCCC(=O)OCC(COC(=O)CCCCCCCC=CCCCCCCCC)OC(=O)CCCCCCCC=CCCCCCCCC): -5.07 kcal/mol | solvation free energy, 298 K (in CCCCCCCCCC): -5.28 kcal/mol | solvation free energy, 298 K (in CCCCCCCCCCCC): -5.21 kcal/mol | solvation free energy, 298 K (in CCCCCCCCCCCCCCCC): -5.15 kcal/mol | solvation free energy, 298 K (in CCCCCCCCO): -4.84 kcal/mol | solvation free energy, 298 K (in CCCCCCOC(C)=O): -5.05 kcal/mol | solvation free energy, 298 K (in CCCCO): -4.69 kcal/mol | solvation free energy, 298 K (in CCCCOC(=O)c1ccccc1C(=O)OCCCC): -4.8 kcal/mol | solvation free energy, 298 K (in CCCCOC(C)=O): -4.99 kcal/mol | solvation free energy, 298 K (in CCCCOCCCC): -5.24 kcal/mol | solvation free energy, 298 K (in CCCO): -4.55 kcal/mol | solvation free energy, 298 K (in CCN(CC)CC): -5.43 kcal/mol | solvation free energy, 298 K (in CCO): -4.47 kcal/mol | solvation free energy, 298 K (in CCOC(=O)c1ccccc1C(=O)OCC): -4.24 kcal/mol | solvation free energy, 298 K (in CCOC(C)=O): -4.83 kcal/mol | solvation free energy, 298 K (in CCOCC): -5.33 kcal/mol | solvation free energy, 298 K (in CCOCCOCCOCC): -4.82 kcal/mol | solvation free energy, 298 K (in CCOc1ccccc1): -4.96 kcal/mol | solvation free energy, 298 K (in CN1CCCC1=O): -4.2 kcal/mol | solvation free energy, 298 K (in CN(C)C=O): -4.06 kcal/mol | solvation free energy, 298 K (in CN(C)P(=O)(N(C)C)N(C)C): -4.49 kcal/mol | solvation free energy, 298 K (in CNC=O): -3.73 kcal/mol | solvation free energy, 298 K (in CO): -4.05 kcal/mol | solvation free energy, 298 K (in COC(C)=O): -4.62 kcal/mol | solvation free energy, 298 K (in COCCO): -4.06 kcal/mol | solvation free energy, 298 K (in COc1ccccc1): -4.91 kcal/mol | solvation free energy, 298 K (in CS(C)=O): -3.28 kcal/mol | solvation free energy, 298 K (in Cc1ccc(C)cc1): -5.35 kcal/mol | solvation free energy, 298 K (in Cc1ccccc1): -5.37 kcal/mol | solvation free energy, 298 K (in Cc1ccccn1): -5 kcal/mol | solvation free energy, 298 K (in ClC(Cl)(Cl)Cl): -5.58 kcal/mol | solvation free energy, 298 K (in ClC(Cl)Cl): -5.46 kcal/mol | solvation free energy, 298 K (in ClCCCl): -4.91 kcal/mol | solvation free energy, 298 K (in ClCCl): -5.2 kcal/mol | solvation free energy, 298 K (in Clc1ccccc1): -5.37 kcal/mol | solvation free energy, 298 K (in FC(F)(F)C(F)(F)C(F)(F)C(F)(F)C(F)(F)C(F)(F)C(F)(F)C(F)(F)F): -3.5 kcal/mol | solvation free energy, 298 K (in FC(F)(F)C(F)(F)C(F)(F)C(F)(F)C(F)(F)C(F)(F)F): -3.53 kcal/mol | solvation free energy, 298 K (in Fc1ccccc1): -5.22 kcal/mol | solvation free energy, 298 K (in ICI): -3.85 kcal/mol | solvation free energy, 298 K (in N#Cc1ccccc1): -4.57 kcal/mol | solvation free energy, 298 K (in NC=O): -1.81 kcal/mol | solvation free energy, 298 K (in Nc1ccccc1): -3.93 kcal/mol | solvation free energy, 298 K (in O): 2.14 kcal/mol | solvation free energy, 298 K (in O=C1CCCCC1): -4.85 kcal/mol | solvation free energy, 298 K (in O=C1CCCO1): -3.62 kcal/mol | solvation free energy, 298 K (in O=CN1CCOCC1): -3.52 kcal/mol | solvation free energy, 298 K (in O=Cc1ccco1): -3.95 kcal/mol | solvation free energy, 298 K (in OCCCCCO): -3.47 kcal/mol | solvation free energy, 298 K (in OCCCCO): -3.26 kcal/mol | solvation free energy, 298 K (in OCCCO): -2.9 kcal/mol | solvation free energy, 298 K (in OCCO): -2.11 kcal/mol | solvation free energy, 298 K (in OCCOCCO): -2.81 kcal/mol | solvation free energy, 298 K (in OCCOCCOCCO): -3.01 kcal/mol | solvation free energy, 298 K (in OCc1ccccc1): -4.14 kcal/mol | solvation free energy, 298 K (in S=C=S): -5.65 kcal/mol | solvation free energy, 298 K (in c1ccccc1): -5.35 kcal/mol | solvation free energy, 298 K (in c1ccncc1): -4.73 kcal/mol
